Source: US20250282764A1, “IMIDAZOLE HETEROCYCLE BASED COMPOUNDS AND METHODS OF TREATING CANCER” (King Abdulaziz University, priority 2024, published 2025)
≈ marks a conversion by molar mass, not a printed value. Read-outs that look alike come from different tables or passages of the source.

Assays:
DLD1 = test: CellTiter-Blue cell viability assay, DLD1; type: cell-based, human; settings: 48 h, 50% cell viability vs untreated, mean of triplicates
Experimental: (§1) Cell culture of colorectal carcinoma cell lines was performed as follows. DLD-1, HCT116, and HT-29 cells were purchased from CLS Cell Line Service GmbH (Eppelheim, Germany) and cultured in Dulbecco's Modified Eagle Medium (DMEM) high glucose, GlutaMAX™ Supplement, pyruvate (Thermo Fisher Scientific, Paisley, UK) supplemented with 10% fetal bovine serum (FBS; Thermo Fisher Scientific), 200 U/mL penicillin, and 200 μg/ml streptomycin (Thermo Fisher Scientific), at 37° C. with 5% CO2 in a humidified incubator.
(§2) The CellTiter®-Blue Cell Viability assay was acquired from Promega Corporation (Madison, WI, USA). Cell viability assay was performed as follows: DLD-1 (4×10^3/well), HCT116 (4×10^3/well), and HT-29 (7×10^3/well) were incubated with a concentration gradient of compound (Id) ranging from 0.01 to 20 μM, in 96-well plates for 48 h at 37° C. Subsequently, 20 μl CellTiter®-Blue Cell Viability reagent was added to each well and incubated for an additional 2 h for the development of fluorescence. The fluorescence emission was measured at 590 nm using a SpectraMax® i3× Multi-Mode microplate reader (Molecular Devices, LLC, San Jose, CA, USA) and plotted against drug concentrations to determine the mean inhibitory concentration of compound (Id) producing 50% decrease in cell viability (IC50). Experiments were performed in triplicates.

HCT116 = test: CellTiter-Blue cell viability assay, HCT116; type: cell-based, human; settings: 50% cell viability vs untreated, mean of triplicates
Experimental: as §1, §2

[1] = Stability in human liver microsomes; type: in vitro ADME
Experimental: (§3) The clearance of compound (Id) in mouse or human liver microsomes was determined at 37° C. Both mouse and human liver microsomes were obtained from Merck KGaA, (Darmstadt, Germany), Cat. No. M9441 (Mouse liver microsomes) and M0317 (Human liver microsomes). Assays were conducted in triplicate in 96-deep well polypropylene plates. […] At five time points, reaction mixture aliquots were transferred to 96-shallow well stop plates on ice containing acetonitrile with 0.1 μM propafenone. […] Standard curves for test compounds were generated using 5 concentrations in triplicate that were processed as above but with zero incubation time. Stop plates were centrifuged at 2000 g for 10 min and then supernatant aliquots were transferred to a Waters Aquity® UPLC 700 μL 96-well sample plate with cap mat (Waters, Milford, MA). The amount of compound remaining in the supernatant was quantified by LC/MS/MS using a Waters Xevo TQ MS (electrospray positive mode) coupled to a Waters Aquity® UPLC (BEH column, C18). Propafenone was used as the internal standard. GraphPad® Prism v 5.04 was used for nonlinear fitting of time course data to generate t1/2 values.

MV4-11 = test: CellTiter-Blue cell viability assay, MV4-11; type: cell-based, human; settings: 48 h, mean of triplicates
Experimental: Cell culture of leukemia cell lines model was performed as follows. HL60, K562, and NB4 cell lines were purchased from CLS Cell Line Service GmbH (Eppelheim, Germany). MV4-11 cell line was purchased from American Type Culture Collection (ATCC; Virginia, USA). KG1α also referred to as KG1a was a gift from Prof. Ghulam Mufti (King College London, UK). Kasumi-1 cell line was purchased from Nawah Scientific (Cairo, Egypt). All cell lines were cultured in Roswell Park Memorial Institute-1640 (RPMI-1640) culture medium supplemented with 10% fetal bovine serum (FBS) (Thermo Fisher Scientific) and 0.1% ciprofloxacin (10 μg/ml; Cipla Limited; Mumbai, India). Cells were maintained in a humidified incubator at 37° C. with 5% CO2.
Cell viability was determined using the CellTiter-Blue® Cell Viability Assay kit (Promega, Madison, WI, USA). Approximately […] were plated in 96 well plate in the presence of increasing drug concentration in triplicate and incubated for 48 h at 37° C. in a humidified incubator. After the incubation period, 20 μL of the cell titer blue reagent was added to each well and the plate was incubated for additional 2 h for the development of florescence. Florescence was measured at 540Ex/590Em on SpectraMax i3 Multi-Mode Microplate Reader (Molecular Devices, LLC; San Jose, CA, USA). […]

[2] = Maximum kinetic aqueous solubility; type: physicochemical; settings: 2% DMSO/PBS, pH 7.4, read-out: Max. aq. Sol.
Experimental: Solubility assays were performed using Millipore MultiScreen® HTS-PFC Filter Plates designed for solubility assays (EMD Millipore, Billerica, MA). Assays were run in triplicate. The 96-well plates consist of two chambers separated by a filter. Liquid handling was performed using JANUS® Verispan and MTD workstations (Perkin Elmer, Waltham, MA). 4 μL of compound (Id) solution (10 mM in DMSO) was added to 196 μL of phosphate buffer (45 mM potassium phosphate, 45 mM sodium acetate, 45 mM ethanolamine, pH=7.4) in the top chamber to give a final DMSO concentration of 2% and a theoretical drug concentration of 200 μM. Plates were gently shaken for 90 min and then subjected to vacuum. Insoluble drug was captured on the filter. 160 μL of the filtrate was transferred to 96-well Griener UV Star® analysis plates (Sigma-Aldrich, St. Louis, MO) containing 40 μL of acetonitrile. The test compound concentration in the filtrates was measured by UV absorbance on a SpectraMax® Plus microplate reader (Molecular Devices, Sunnyvale, CA) using Softmax Pro software v.5.4.5. Absorbances at 5 wavelengths (280, 300, 320, 340, and 360 nm) were summed to generate the UV signal. Standard curves were generated by adding 4 μL of five concentrations of test compound in DMSO to 40 μL of acetonitrile in UV Star plates followed by 156 μL of the appropriate solubility medium. Analysis and statistics were performed using GraphPad® Prism v.5.04. Data were reported as the maximum concentration observed in the filtrate.

[3] = Stability in mouse liver microsomes; type: in vitro ADME
Experimental: as §3

[4] = previous study profiling; cited from earlier work
[5] = human liver microsomes, in presence of NADPH, 37° C.
[6] = without NADPH, percent remaining after 60 min incubation
[7] = without NADPH, percent remaining after 60 min incubation, listed as compound (Id)

Row | Compound | IC50 (DLD1; Homo sapiens, DLD-1) [µM] | IC50 (HCT116; 48 h) [µM] | IC50 (HCT116; Homo sapiens, HCT-116, 48 h) [µM] | Stability HLM t1/2 [1, 5] [min] | half-life ([1]; human, liver microsomes, human liver microsomes, in presence of NADPH, 37° C., read-out: Stability HLM t1/2) [min] | Mic. Ctrl. Human % @60 min [1, 6] [%] | Mic. Ctrl. Human % @60 min [1, 7] | IC50 (MV4-11; Homo sapiens, MV4-11) [µM] | solubility kinetic at 90 min [2] [µM] | solubility kinetic at 90 min ([2]; phosphate buffer with 2% DMSO, aqueous buffer, kinetic from dmso stock) [µM] | half-life ([3]; male, CD-1, mouse liver microsomes, in presence of NADPH, 37° C., read-out: Stability MLM t1/2) [min] | Mic. Ctrl. Mouse % @60 min [3, 6] [%] | Mic. Ctrl. Mouse % @60 min [3, 7] | maximum aqueous solubility [4] [µM] | IC50 (DLD1) [µM] | Mic. Ctrl. Human % @60 min [1] [%] | IC50 (MV4-11) [µM] | Mic. Ctrl. Mouse % @60 min [3] [%] | Stability MLM t1/2 ([3]; mouse liver microsomes, in presence of NADPH, 37° C.) [min]
1 | CC1=N/C(=C\c2ccc(C)o2)C(=O)N1c1ccc(CC(=O)NCc2ccccc2)cc1 [Compound (Id), 2-Methyl-4-(5-methyl-2-furyl)methylene-1-[4-(benzylaminocarbonylmethyl)phenyl]-5-oxo-1H-imidazole] | 1.35 | 1.46 | 1.46 | 30.3 | 30 | 118 | did not change | 0.254 | 79.8 (≈ 33 µg/mL) | 79.8 (≈ 33 µg/mL) | 16.6 | 90 | did not change |  |  |  |  |  | 
2 | COc1ccc(/C=C2\N=C(C)N(c3ccc(CC(=O)NCc4ccccc4)cc3)C2=O)cc1 [KIM-161, reference compound] |  | 1.77 |  | 22.9 |  |  |  |  | 19.9 (≈ 8.75 µg/mL) |  |  |  |  | 19.9 | 1.73 | 113 | 0.361 | 112 | 14.8
